Source: US20110059475A1, “STABILISATION OF BLOOD CELL CONJUGATES” (THE UNIVERSITY OF NOTTINGHAM, priority 2008, published 2011)
“Also recorded” adds a separate entry of the source.

Legend:
[1] = system: platelets; assay: Whole blood platelet aggregation: flow cytometric single platelet count in fixed and stabilised citrate-anticoagulated blood; assay type: cell-based
From the text: Referring to FIG. 1, there are illustrated dot plots by which the number of single platelets may be quantified. Once the number of single platelets has been determined, it is then possible to calculate the percentage degree of platelet aggregation. Quantification of single platelets in whole blood by flow cytometry required 50,000 red cell events which were collected in region P1 on a forward scatter/side scatter plot, as shown in FIG. 1a. CD42a fluorescence was plotted against forward scatter, and region P2 was selected by drawing a curved line to include all platelet-related events and excluding erythrocyte/platelet co-incidences marked “e/p”, as shown in FIG. 1b. EDTA-anti-coagulated blood, or citrate anti-coagulated blood containing EDTA thus containing unstimulated platelets, was used to set three rectangular gates to quantitate microparticles (P3), single platelets (P4), and microaggregates (P5). These gates were then applied to the dot plots obtained for stimulated samples of blood, recording single platelets in P4. An example of results from an ADP-stimulated, fixed sample in which the single platelet events (P4) reduced from 1716 to 182 (indicating the formation of platelet aggregates) is shown in FIGS. 1d, 1e and 1f.
Fixed and stabilised blood samples were mixed gently by repeated inversion of the sample tubes. 100 μl of the fixed blood was placed in a flow cytometry tube and centrifuged at 380 g for 5 minutes after which 90 μl of the supernatant is removed. The remaining 10 μl of fixed blood was then incubated with 10 μl of a 1 in 10 dilution of CD42a-FITC-labelled antibody for 20 min at 4° C. in the FACS tubes. 1 ml of FACSflow (or any other flow cytometry diluent) was added to the tubes immediately prior to reading on any flow cytometer equipped with a laser operating at an excitation wavelength of 488 nm and with detectors for measurement at suitable wavelengths for the selected fluorochromes (ie FITC). Appropriate software was used to acquire and analyse data on dot plots of forward scatter versus side scatter and forward scatter versus FITC fluorescence acquired with logarithmic amplification. Acquisition was stopped after recording 50,000 erythrocyte events. A sample of fixed unstimulated EDTA-anti-coagulated blood was used to set the vertical lines of three square gates P3, P4 and P5 on a forward scatter versus FITC fluorescence plot. These gates were adjusted to record microparticles in P3, single platelets in P4 and any microaggregates in P5 (see Example 2). The test samples are then analysed using the same gates. Larger aggregates would not be detected by the flow cytometer since they would be too large and cannot pass through the sample tube of the machine.
The single platelet count described above is a record of the number of single platelets present in each blood sample (recorded as single platelet events, ie the number of single platelets passing the laser) in relation to 50,000 erythrocyte events recorded, ie erythrocytes passing the laser. It is possible to calculate a true platelet count by using standard flow cytometry counting beads, such as those sold under the trade name Trucount. Aggregation is usually determined as a percentage, and in whole blood this may be recorded as a percentage fall in single platelets. […] It is therefore possible to calculate percentage aggregation directly from the recordings of single platelet events using the following formula:—
Where “EDTA count” is the number of platelet events (ie single platelets passing the laser) for a sample containing EDTA which has been fixed in the same way as the test samples, and where “Sample count” is the number of platelet events for the fixed test sample. […]

[2] = system: platelets; assay: ADP-induced platelet aggregation in blood of volunteers before and after treatment with clopidogrel or clopidogrel plus aspirin; conditions: ADP 10 μM stimulant tube, citrate blood, percentage of EDTA sample
[3] = system: platelet-neutrophil conjugates; assay: Platelet-neutrophil conjugates by flow cytometry (CD14 with CD42a or CD62P) in fixed and stabilised blood; assay type: cell-based; conditions: after incubation with collagen
Protocol: (§1) For example, fixed and stabilised samples are removed from the fridge and mixed well until the sedimented cells are fully re-suspended. 500 μl of each sample is then dispensed into appropriately labelled flow cytometry tubes and centrifuged for 10 min at 380 g. 450 μl of the supernatant is then removed, taking care not to disturb the red blood cell pellet. 10 μl of saturating concentrations of CD14-APCCy7 (used to distinguish monocytes and neutrophils) and CD42a-FITC or CD62P-PE (used to identify platelets bound to either monocytes or neutrophils) is then added to the tubes and incubated with the cells in the dark. After 25 minutes, 1 ml of Erythrolyse solution (AbD Serotec, Oxford, UK) is added to the cells and left to stand for 10 minutes to lyse any red blood cells. 1 ml of FACSflow is added and the cells centrifuged at 380 g. Supernatants are decanted and cells re-suspended in 2 ml of FACSflow to wash the cells. The cells are then centrifuged at 380 g again, the supernatant removed and the cells finally re-suspended in 300 μl of FACSflow to await reading on the flow cytometer.
(§2) Leukocytes are initially identified by logical gating from dot plots of forward scatter (cell size) and side scatter (cell granularity) profiles acquired with linear amplification. Fluorescence parameters are acquired with logarithmic amplification and 30,000 leukocyte events are collected for each blood sample. […] Lymphocytes may also be identified by CD14 negativity and a low forward scatter/side scatter profile, but platelet-lymphocyte conjugates are formed to a lesser extent and are not routinely quantitated. Platelet-monocyte and platelet-neutrophil conjugates are quantified as the percentage of monocytes or neutrophils expressing platelet CD42a or CD62P fluorescence in an interval gate which may be adjusted using an appropriate IgG control in each case. Median fluorescence values for CD42a or CD62P are also measured for each population of leukocytes tested. […]
Referring to FIG. 10, there are shown dot plots used for the identification of platelet-leukocyte conjugates in fixed and stabilised blood samples following incubation with (a) saline, or (b) collagen. […] Platelet-monocyte and platelet-neutrophil conjugate formation following stimulation with collagen is seen as a shift to the right in plot (iii) as the degree of platelet-specific CD42a fluorescence (ie marker expression) increases.
Referring to FIG. 12, there is shown the quantification of platelet-neutrophil conjugates (identified from gates P1 and P4 as shown in FIG. 10) which are detected with the platelet-specific markers CD42a or CD62P. […]

[4] = system: platelet-monocyte conjugates; assay: Platelet-monocyte conjugates by flow cytometry (CD14 with CD42a or CD62P) in fixed and stabilised blood; assay type: cell-based; conditions: after incubation with collagen
Protocol: as §1, §2

Molecule: CC(=O)Oc1ccccc1C(=O)O [aspirin]
- effect on collagen-induced platelet aggregation ([1]; collagen 1, 2, 3, 4 μg/ml for 10 minutes, presence vs absence of aspirin, three donors): significantly reducing the amount of aggregation

Molecule: COC(=O)[C@H](c1ccccc1Cl)N1CCc2sccc2C1 [clopidogrel]
- platelet aggregation after treatment compared with before treatment [2]: less aggregation; also recorded: inhibited

Molecule: CCCCC/C=C\C/C=C\C/C=C\C/C=C\CCCC(=O)O [AA, arachidonic acid]
- degree of aggregation (percentage fall in single platelets) ([1]; 200 nM arachidonic acid, same donor, citrate-anticoagulated blood): 54%

Molecule: Thrombin Receptor Activating Peptide [TRAP]
- degree of aggregation (percentage fall in single platelets) ([1]; 10 μM TRAP, same donor, citrate-anticoagulated blood): 89%

Molecule: collagen
- platelet-neutrophil conjugates, percentage of parent neutrophil population (CD62P, % gated) ([3]; saline 7.3): 72.1%
- platelet-neutrophil conjugates, percentage of parent neutrophil population (CD42a, % gated) ([3]; saline 7.9): 21.9%
- CD62P median fluorescence of neutrophil population ([3]; saline 141): 688
- CD42a median fluorescence of neutrophil population ([3]; saline 142): 201
- single platelet events in P4 (sample count) ([1]; collagen 1 μg/ml, 4 minutes, per 50,000 erythrocyte events, EDTA count 1118): 693
- degree of aggregation (percentage fall in single platelets compared with EDTA sample) ([1]; collagen 1 μg/ml, stirred 4 minutes, citrate-anticoagulated blood): about 38%
- platelet-monocyte conjugates, percentage of parent monocyte population (CD42a, % gated) ([4]; saline 8.2): 64.1%
- platelet-monocyte conjugates, percentage of parent monocyte population (CD62P, % gated) ([4]; saline 9.3): 98.7%
- CD42a median fluorescence of monocyte population ([4]; saline 259): 832 arbitrary units

Molecule: Nc1ncnc2c1ncn2[C@@H]1O[C@H](COP(=O)(O)OP(=O)(O)O)[C@@H](O)[C@H]1O [ADP, adenosine diphosphate]
- aggregation (percentage fall in single platelets) ([1]; 1 μM ADP, stirred 4 minutes): 27%
- aggregation (percentage fall in single platelets) ([1]; 3 μM ADP, stirred 4 minutes): 62%
- aggregation (percentage fall in single platelets) ([1]; 10 μM ADP, stirred 4 minutes): 89%
- single platelet events (P4) ([1]; ADP-stimulated fixed sample, per 50,000 red cell events, unstimulated 1716): 182

Molecule: CCCCC[C@H](O)/C=C/[C@@H]1[C@@H](C/C=C\CCCC(=O)O)[C@H]2CO[C@@H]1C2 [U46619]
- degree of aggregation (percentage fall in single platelets) ([1]; 1 μM U46619, same donor, citrate-anticoagulated blood): 96%

Molecule: Platelet Activating Factor [PAF]
- degree of aggregation (percentage fall in single platelets) ([1]; 3 μM PAF, same donor, citrate-anticoagulated blood): 70%
